“And” between values parts separate entries of the source, which are not always exact repeats. Equal values may be shown once. Read-outs that look alike come from different tables or passages of the source.
Tests used:
[1] = target: T1, Shaker-IR channel (Drosophila melanogaster, UniProt P08510, DEL6-46); assay: cell-based; type: cell-based; conditions: for GV curve V1/2: voltage dependence of gate opening; for IC50: normalized steady-state IK amplitude at 0 mV, Hill fit, read-out: IC50 of ionic current (IK) inhibition; for Hill coefficient of IK inhibition concentration-response curve: steady-state IK at 0 mV
T1 construct: expressed in transfected cells; host or cells: HEK293
T1 sequence (P08510 other isoform, or with tags, fused parts or gaps DEL6-46): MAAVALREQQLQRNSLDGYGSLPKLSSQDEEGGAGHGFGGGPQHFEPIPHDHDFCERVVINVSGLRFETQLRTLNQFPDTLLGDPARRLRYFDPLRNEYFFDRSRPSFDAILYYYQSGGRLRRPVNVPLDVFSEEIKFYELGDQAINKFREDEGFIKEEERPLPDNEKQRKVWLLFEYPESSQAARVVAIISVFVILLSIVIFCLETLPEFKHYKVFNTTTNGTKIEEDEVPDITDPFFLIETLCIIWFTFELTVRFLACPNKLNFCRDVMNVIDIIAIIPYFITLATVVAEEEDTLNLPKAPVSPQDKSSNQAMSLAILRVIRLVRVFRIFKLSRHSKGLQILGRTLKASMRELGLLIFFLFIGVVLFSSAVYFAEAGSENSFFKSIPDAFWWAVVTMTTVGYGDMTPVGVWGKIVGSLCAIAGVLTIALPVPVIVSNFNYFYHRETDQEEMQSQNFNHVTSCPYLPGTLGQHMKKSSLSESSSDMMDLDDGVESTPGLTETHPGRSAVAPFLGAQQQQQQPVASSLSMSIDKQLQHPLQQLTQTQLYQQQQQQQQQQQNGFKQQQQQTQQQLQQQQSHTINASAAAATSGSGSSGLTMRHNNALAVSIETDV
Description: (§1) The N-terminal deletion Δ6–46 Shaker clone (Shaker-IR), which removes fast inactivation, was used in this study. The W434F mutation, which yields a non-conducting Shaker-IR-W434F channel, and the P475A mutation were introduced as described previously. All channel constructs were expressed using a pGW1 expression vector. The plasmid that codes for the green fluorescent protein, used to identify transfected cells, was purchased from Clontech (Palo Alto, CA, USA). Plasmid DNA for mammalian expression was obtained by amplification in XL2 Bluescript cells (Stratagene), and afterwards isolated using the endotoxin-free Maxiprep kit (Macherey-Nagel, Düren, Germany). The cDNA concentration was determined by UV absorption.
(§2) HEK293 cells were cultured in Modified Eagle’s Medium (MEM) supplemented with 10% fetal bovine serum, 1% penicillin/streptomycin and 1% non-essential amino acids (Invitrogen, Carlsbad, CA, USA). Cells were transiently transfected with the appropriate channel DNA plasmids using polyethyleneimine that was purchased from Sigma-Aldrich (St Louis, MO, USA), details of procedure was described previously.
(§3) Whole-cell ionic IK or gating IG current measurements were done at room temperature (20 to 23 °C) using an Axopatch-200B amplifier and the recordings were digitized with a Digidata-1200 A acquisition system (Molecular Devices, Sunnyvale, CA, USA). Both IK and IG recordings were digitized at 10 kHz sampling rate after passing a 5 KHz Bessel low-pass filter. Command voltages and data storage were controlled with pClamp10 software. Patch pipettes were pulled from 1.2 mm quick-fill borosilicate glass capillaries (World Precision Instruments, Sarasota, FL, USA) with a P-2000 puller (Sutter Instrument Co., Novato, CA, USA) and afterwards heat-polished, to have patch pipettes with a resistance of approximately 1.5 MOhm determined with the filled pipette in the bath solution.
(§4) For IK measurements the cells were constantly superfused with external bath solution that contained (in mM) NaCl 130, KCl 4, CaCl2 1.8, MgCl2 1, HEPES 10, Glucose 10, adjusted to pH 7.35 with NaOH. The patch pipettes were filled with internal solution containing (in mM) KCl 110, K4BAPTA 5, K2ATP 5, MgCl2 1, HEPES 10, adjusted to pH 7.2 with KOH. For IG measurements the monovalent cations were replaced with N-methyl-D-glucamine (NMG^+). The bath solution contained (in mM) NMG^+ 140, HEPES 10, Glucose 10, MgCl2 1, CaCl2 1.8, titrated to pH 7.35 with HCl. The pipette solution contained (in mM) NMG^+ 140, HEPES 10, EGTA 10, MgCl2 1, titrated to pH 7.2 with HCl. Junction potentials were zeroed with the filled pipette in the bath solution and experiments were excluded from analysis if the voltage error estimate exceeded 5 mV after series resistance compensation. For IG measurements, leak currents and remaining capacitive currents were subtracted online using a −P/6 protocol (using a holding potential of −95 mV). IK recordings were not leak corrected.
(§5) For the highest concentration of 1-BuOH tested (300 mM), the osmolarity of the extracellular solution for IK or IG recordings increased by approximately 300 mOsm resulting in a total osmolarity of ~640 mOsm. […] All compounds were applied to the cells using a pressurized fast perfusion system equipped with a quartz micromanifold (ALA scientific, Farmingdale, NY, USA), allowing rapid exchange of the external solutions.
(§6) Details of pulse protocols used to elicit IK or IG recordings were adjusted to determine the biophysical properties of each construct adequately and are shown in the figures or described in legends. All the graphs were built using SigmaPlot 11.0 (Systat Software Inc., San Jose, CA, USA).

[2] = target: T2, Shaker-IR-P475A (Drosophila melanogaster, UniProt P08510, DEL6-46/P475A); assay: cell-based; type: cell-based; conditions: for GV curve V1/2: from tail currents; for Hill coefficient of weighted τIKac concentration-response curve / IC50: weighted τIKac at +100 mV; for IC50: read-out: IC50 of acceleration of weighted τIKac
T2 construct: expressed in transfected cells; host or cells: HEK293
T2 sequence (P08510 other isoform, or with tags, fused parts or gaps DEL6-46/P475A): as the sequence (P08510 other isoform, or with tags, fused parts or gaps DEL6-46) above, with P434A counted along it
Description: as §1, §2, §3, §4, §5, §6

[3] = target: T3, Shaker-IR-W434F (Drosophila melanogaster, UniProt P08510, DEL6-46/W434F); assay: cell-based; type: cell-based; conditions: for QV curve V1/2: voltage dependence of VSD movement; for gating charge immobilized (reduction in gating charge movement): general statement, no concentration given
T3 construct: expressed in transfected cells; host or cells: HEK293
T3 sequence (P08510 other isoform, or with tags, fused parts or gaps DEL6-46/W434F): as the sequence (P08510 other isoform, or with tags, fused parts or gaps DEL6-46) above, with W393F counted along it
Description: as §1, §2, §3, §4, §5, §6

[4] = target: T4, Shaker-IR-W434F-P475A (Drosophila melanogaster, UniProt P08510, DEL6-46/P475A/W434F); type: cell-based
T4 construct: expressed in transfected cells; host or cells: HEK293
T4 sequence (P08510 other isoform, or with tags, fused parts or gaps DEL6-46/W434F/P475A): as the sequence (P08510 other isoform, or with tags, fused parts or gaps DEL6-46) above, with W393F, P434A counted along it
Description: as §1, §2, §3, §4, §5, §6

[5] = target: T3, Shaker-IR-W434F; parameters: method as in PMID 11463634; conditions: cited from earlier work
[6] = target: T2, Shaker-IR-P475A; conditions: cited from earlier work
[7] = integrated steady-state IGac normalized to control, read-out: IC50 of reduction in total gating charge
[8] = weighted τIGdeac at −90 mV, read-out: IC50 of acceleration of VSD deactivation time constant (τIGdeac)

CCCCO [1-BuOH, 1-Butanol]
GV curve slope factor k ([1]; 50 mM 1-BuOH): 5.1 ± 0.7 mV
GV curve V1/2 ([1]; 50 mM 1-BuOH): −28.5 ± 2.3 mV
time constant of current recovery upon wash-out ([1]; after 50 mM 1-BuOH): 7.6 ± 2.1 s
time constant of development of IK inhibition ([1]; application of 50 mM 1-BuOH): 5.2 ± 1.2 s
IC50 [1]: ~50 mM and 50 mM and 51.8 mM
Hill coefficient of IK inhibition concentration-response curve [1]: 0.92 ± 0.04
effect on IK of the P475A mutant [2]: concentration-dependent increase in IK
GV curve slope factor k ([2]; 100 mM 1-BuOH): 9.6 ± 0.4 mV
GV curve V1/2 ([2]; 100 mM 1-BuOH): 62 ± 1 mV
GV curve slope factor k ([2]; 300 mM 1-BuOH): 6.8 ± 0.7 mV
GV curve V1/2 ([2]; 300 mM 1-BuOH): 50 ± 1 mV
Hill coefficient of weighted τIKac concentration-response curve [2]: 1.5 ± 0.4
IC50 [2]: 58.8 ± 3 mM
Hill coefficient of gating charge reduction concentration-response curve [3]: 1.5 ± 0.2
maximal reduction in charge movement ([3]; 300 mM 1-BuOH): approximately 10%
τIGdeac at −120 mV ([3]; 300 mM 1-BuOH): 0.48 ± 0.08 ms
extra reduction of gating charge movement on addition to 4-AP ([3]; 300 mM 1-BuOH in continued presence of 1 mM 4-AP): did not result in an extra reduction of gating charge movement
QV curve V1/2 ([3]; 300 mM 1-BuOH): −32.4 ± 3.4 mV
gating charge immobilized (reduction in gating charge movement) [3]: 10%
IC50 [3, 7]: 88 ± 2 mM
Hill coefficient of τIGdeac concentration-response curve ([3]; weighted τIGdeac at −90 mV): 1.3 ± 0.4
IC50 [3, 8]: 67 ± 1 mM
QV curve 1st comp V1/2 ([4]; 300 mM 1-BuOH): −39.2 ± 1.4 mV
QV curve 1st comp k ([4]; 300 mM 1-BuOH): 16.2 ± 1.2 mV
QV curve 2nd comp V1/2 ([4]; 300 mM 1-BuOH): 52.2 ± 1.2 mV
QV curve 2nd comp k ([4]; 300 mM 1-BuOH): 9.1 ± 1.1 mV

Nc1ccncc1 [4-AP, 4-aminopyridine]
inhibition at 30 µM ([1]; HEK293, read-out: steady-state IK inhibition): ~50%
loss of gating charge movement ([3]; 1 mM 4-AP): approximately 10%
reduction in gating charge movement [5]: 10%
sensitivity of the P475A mutant to the drug [6]: insensitive

CCCCCCO [1-HeOH, 1-Hexanol]
GV curve slope factor k ([1]; 3 mM 1-HeOH): 7.5 ± 0.9 mV
GV curve V1/2 ([1]; 3 mM 1-HeOH): −25.4 ± 1.2 mV
time constant of current recovery upon wash-out ([1]; after 3 mM 1-HeOH): 4.8 ± 1.7 s
time constant of development of IK inhibition ([1]; application of 3 mM 1-HeOH): 3.7 ± 0.7 s
IC50 [1]: ~3 mM and 2.7 mM
Hill coefficient of IK inhibition concentration-response curve [1]: 1.13 ± 0.22
effect on IK of the P475A mutant [2]: concentration-dependent increase in IK
GV curve slope factor k ([2]; 10 mM 1-HeOH): 10.7 ± 0.6 mV
GV curve V1/2 ([2]; 10 mM 1-HeOH): 64 ± 1 mV
GV curve slope factor k ([2]; 30 mM 1-HeOH): 6.6 ± 0.6 mV
GV curve V1/2 ([2]; 30 mM 1-HeOH): 49 ± 1 mV
Hill coefficient of weighted τIKac concentration-response curve [2]: 1.3 ± 0.3
IC50 [2]: 4.6 ± 0.8 mM
Hill coefficient of gating charge reduction concentration-response curve [3]: 1.5 ± 0.2
maximal reduction in charge movement ([3]; 30 mM 1-HeOH): ~12%
τIGdeac at −120 mV ([3]; 30 mM 1-HeOH): 0.53 ± 0.10 ms
QV curve V1/2 ([3]; 30 mM 1-HeOH): −31.4 ± 0.9 mV
gating charge immobilized (reduction in gating charge movement) [3]: 10%
IC50 [3, 7]: 13.8 ± 1.6 mM
Hill coefficient of τIGdeac concentration-response curve ([3]; weighted τIGdeac at −90 mV): 1.6 ± 0.3
IC50 [3, 8]: 3 ± 0.4 mM
QV curve 1st comp V1/2 ([4]; 30 mM 1-HeOH): −35.3 ± 1.5 mV
QV curve 2nd comp V1/2 ([4]; 30 mM 1-HeOH): 50.2 ± 1.1 mV
QV curve 2nd comp k ([4]; 30 mM 1-HeOH): 3.6 ± 1.4 mV
